Laboratory results: paper PMC7998250, “Temperate Zone Plant Natural Products—A Novel Resource for Activity against Tropical Parasitic Diseases” (Pharmaceuticals, 2021)
pEC50: −log10 of the molar value. Where two headings read alike, the source gives them in different places.

Experiments:
[1] = system: T. brucei bloodstream form; assay: Initial screen, T. brucei bloodstream form, Alamar Blue; assay type: cell-based, Trypanosoma brucei brucei; conditions: for activity at 2 µM / inhibition of growth at 2 µM: Trypanosoma brucei; for activity at 2 µM: initial screen; for initial hit against T. brucei / inhibition of growth at 2 µM: 2 μM; for initial hit against T. brucei: growth reduced by ≥50%; for inhibition of growth at 2 µM: x = initial hit, read-out: initial hit T.b
Method: (§1) 634 compounds from the PhytoQuest Phytopure temperate plant natural product library were screened for growth inhibitory activity against L. mexicana axenic amastigotes, T. brucei bloodstream form, intraerythrocytic asexual P. falciparum (at 2 μM) and T. evansi bloodstream form parasites (at 1 μM). […] Our initial hits were defined as reducing growth of the parasite by ≥50%.
(§2) L. mexicana strain MNYC/BZ/62/M379 and L. donovani strain LdBOB (a clonal line from strain MHOM/SD/62/1S-CL2) were maintained in vitro in the procyclic promastigote stage. Parasites were cultivated at 26 °C in Schneider’s medium (Gibco) pH 7.0 containing 10% FBS, 100 U/mL penicillin (Lonza) and 100 μg/mL streptomycin (Lonza) as previously described. Differentiation into axenic amastigotes was performed as described previously. Briefly, axenic amastigotes were cultivated at 32 °C in Schneider’s medium pH 5.5 containing 10% FBS, 100 U/mL penicillin (Lonza) and 100 μg/mL streptomycin (Lonza). Bloodstream form T. brucei brucei strain Lister 427 and T. evansi strain Antat 3/3 [59] were maintained in vitro at 37 °C with 5% (v/v) CO2 in HMI-11 medium supplemented with 10% FBS, as described elsewhere. Intraerythrocytic cultures of P. falciparum Dd2^Luc strain [62] were maintained at 37 °C in a 1% O2:3% CO2:96% N2 atmosphere in RPMI-1640 containing 37.5 mM HEPES, 5 mM NaOH, 10 mM D-glucose, 2 mM L-glutamine, 100 μM hypoxanthine, […] gentamicin sulfate, 5% human serum and 5% albumax-II and 2% haematocrit erythrocytes. When required, cultures were synchronised to ring stages using the sorbitol lysis method. Preliminary cytotoxicity screening was assessed using HepG2 cells. These cells were maintained in vitro at 37 °C with 5% (v/v) CO2 in DMEM (Sigma) pH 7 supplemented with 10% FBS, 100 U/mL penicillin (Lonza) and 100 μg/mL streptomycin (Lonza), as previously described. The human monocyte cell line THP-1 [68] was maintained in vitro by culturing at 37 °C with 5% (v/v) CO2 in complete RPMI medium (Dutch modified RPMI-1640 (Gibco) containing 10% FBS and 2 mM L-glutamine (Gibco)). Differentiation of THP-1 cells into macrophages was performed by seeding 2.5 × 10^5 cells/mL in complete RPMI media, supplemented with 20 ng/mL phorbol 12-myristate 13-acetate (PMA), followed by incubation at 37 °C with 5% (v/v) CO2 for 24 h.
(§3) The library was provided as 634 non-polar compounds (1 mg/mL in DMSO). Initial screening was performed in a 96-well plate with 200 μL of parasite culture. The initial screen used each compound at a final concentration of 2 μM for L. mexicana axenic amastigotes, T. brucei and P. falciparum, and at 1 μM for T. evansi. L. mexicana axenic amastigotes were plated at 1 × 10^6 cells/mL, incubated for 72 h, and the Alamar Blue assay was used to assess parasite growth. Each compound was tested in triplicate, with two biological replicates (n = 6). T. brucei and T. evansi were plated at 1×10^5 cells/mL for 48 h, and the Alamar Blue assay was used to assess parasite growth. Each compound was tested in triplicate with two biological replicates (n = 6). Intraerythrocytic P. falciparum in the trophozoite stage were seeded at 0.5% parasitaemia and 2% haematocrit for 48 h, and the Malaria SYBR-Green I fluorescence assay was used to assess parasite growth. Each compound was tested in duplicate with two biological replicates (n = 4). Negative controls comprised an equivalent volume of DMSO (equivalent of 1% v/v) to normalise the growth data. Data points >100% growth and <0% growth were tabulated as 100% and 0%, respectively. Some compounds were not tested in all parasite lines as there was insufficient material remaining.

[2] = system: T. evansi bloodstream form; assay: Initial screen, T. evansi bloodstream form, Alamar Blue; assay type: cell-based, Trypanosoma evansi; conditions: Trypanosoma evansi; for activity at 1 µM: initial screen; for inhibition of growth at 1 µM: x = initial hit, read-out: initial hit T.e
Method: as §1, §2, §3

[3] = system: P. falciparum Dd2Luc intraerythrocytic trophozoites; assay: Initial screen, intraerythrocytic P. falciparum, Malaria SYBR-Green I fluorescence assay; assay type: cell-based, Plasmodium falciparum
Method: as §1, with “≥50%. […]” for “≥50%.”
as §3, with “The PhytoQuest Phytopure library is a commercially available collection of purified compounds isolated predominantly from temperate zone plants, with structures confirmed by NMR and mass spectrometry. The library” for “The library”

[4] = system: L. mexicana axenic amastigotes; assay: Initial screen, L. mexicana axenic amastigotes, Alamar Blue; assay type: cell-based, Leishmania mexicana
Method: as §1, with “≥50%. […]” for “≥50%.”
as §3, with “The PhytoQuest Phytopure library is a commercially available collection of purified compounds isolated predominantly from temperate zone plants, with structures confirmed by NMR and mass spectrometry. The library” for “The library”

T. brucei = assay: Concentration-response EC50, T. brucei; assay type: cell-based, Trypanosoma brucei brucei; conditions: Trypanosoma brucei, 48 h, bloodstream form, 48 h; read-out: T. brucei EC50
Method: EC50 values were determined by serial two-fold dilution of each compound in 96 well plates. Culture conditions and viability assays were as stated for the initial screen, with some exceptions. L. mexicana and L. donovani axenic amastigotes were seeded at 2 × 10^6 cell/s mL, T. brucei and T. evansi were seeded at 2 × 10^5 cells/mL. For cytotoxicity studies, HepG2 cells were seeded at 1 × 10^5 cells/mL, incubated for 48 h and viability was assessed using the Alamar Blue assay [66, 67]. […] Normalised growth and viability data (compared to untreated controls) were plotted against Log10 concentration to estimate EC50 in GraphPad (Prism v6).

in vitro = conditions: human, pH 7, HepG2 CC50
From the text: Initial hits from the parasite panel screen were taken forward in log concentration versus normalised response assays to estimate the half maximal effective concentration (EC50) in hit species as well as the half maximal cytotoxic concentrations (CC50) in the human hepatoma cell line HepG2 as a preliminary test for selectivity. Using CC50/EC50 to define the selectivity index (SI), the selectivity for each compound in a defined species compared to a human cell line was estimated and compared to the EC50 (Figure 3).
as §2
EC50 values were determined by serial two-fold dilution of each compound in 96 well plates. Culture conditions and viability assays were as stated for the initial screen, with some exceptions. L. mexicana and L. donovani axenic amastigotes were seeded at 2 × 10^6 cell/s mL, T. brucei and T. evansi were seeded at 2 × 10^5 cells/mL. For cytotoxicity studies, HepG2 cells were seeded at 1 × 10^5 cells/mL, incubated for 48 h and viability was assessed using the Alamar Blue assay. Differentiated THP-1 cells were seeded at 5 × 10^4 cells/mL, incubated for 48 h, and viability was assessed by the Alamar Blue assay. Normalised growth and viability data (compared to untreated controls) were plotted against Log10 concentration to estimate EC50 in GraphPad (Prism v6). Bioluminescence relative rate of kill assays in asexual intraerythrocytic P. falciparum Dd2^Luc were carried out as described.

[5] = mean % growth compared to a normalised control with same concentration of DMSO solvent, read-out: % growth T. b. brucei
[6] = mean % growth compared to a normalised control with same concentration of DMSO solvent, read-out: % growth T. evansi
[7] = Plasmodium falciparum, 48 h, read-out: %growth P. falciparum, mean % growth compared to a normalised control with same concentration of DMSO solvent, initial screen
[8] = Leishmania mexicana, read-out: % growth L. mexicana, mean % growth compared to a normalised control with same concentration of DMSO solvent, initial screen
[9] = compared to a normalised control with same concentration of DMSO solvent, read-out: mean % growth, T. b. brucei
[10] = compared to a normalised control with same concentration of DMSO solvent, read-out: mean % growth, T. evansi
[11] = Plasmodium falciparum, 48 h, read-out: mean % growth, P. falciparum, initial screen, compared to a normalised control with same concentration of DMSO solvent
[12] = Leishmania mexicana, read-out: mean % growth, L. mexicana, initial screen, compared to a normalised control with same concentration of DMSO solvent

Structure (SMILES) | activity at 2 µM [1, 5] [%] | activity at 1 µM [2, 6] [%] | activity at 2 µM [3, 7] [%] | inhibition of growth at 2 µM ([3]; Plasmodium falciparum, 48 h, read-out: initial hit P.f) [%] | activity at 2 µM [4, 8] [%] | pEC50 (T. brucei) | initial hit against T. brucei [1] | inhibition of growth at 2 µM [1] [%] | activity against P. falciparum in screen ([3]; 2 μM) | decrease of L. mexicana survival ([4]; 2 μM, 72 h) [%] | CC50 at 48 h (in vitro) [µM] | inhibition of growth at 1 µM [2] [%] | activity at 2 µM [1, 9] [%] | activity at 1 µM [2, 10] [%] | activity at 2 µM [3, 11] [%] | activity at 2 µM [4, 12] [%] | initial hit against L. mexicana ([4]; 2 μM, growth inhibited by ≥80%) | inhibition of growth at 2 µM ([4]; Leishmania mexicana, 2 μM, x = initial hit, read-out: initial hit L.m) [%]
CC(=O)OC1C(O)C(C)OC(OC2C(OC(=O)C3C[C@@H]4OC5(CC(OC(=O)/C=C/c6ccccc6)[C@@H](C)CO5)C(O)(CO)[C@@H]4CO3)OC(C)C(O)C2OC(C)=O)C1O (single isomer, unassigned) [Compound 700047] | 61 | 90.2 | 41.8 | > 50 | 60 |  |  |  |  |  |  |  |  |  |  |  |  | 
CC(C)c1ccc2c(c1)CCC1C(C)(C=O)CCCC21C (stereo not shown) [Compound 700014] | 25.2 | 93 | 107 |  | 56.9 | 5.96 | initial hits | > 50 | neither 700014 or 700063 showed activity against P. falciparum | ~70 | 40 |  |  |  |  |  |  | 
CC(C)c1ccc2c(c1)CCC1C(CCCC1C(=O)O)O2 (stereo not shown) [Compound 700110] | 87.2 | 47.9 | 105 |  | 52.4 |  |  |  |  |  |  | > 50 |  |  |  |  |  | 
C/C1=C\C2OC(=O)C(=O)C2CC/C(C(=O)OC2OC(CO)C(O)C(O)C2O)=C\CC1 (stereo not shown) [Compound 700458] |  |  |  |  |  |  |  |  |  |  |  | > 50 | 78.2 | 48.2 | 119 | 48.5 |  | 
O=C1C=CC(O)(c2cc(=O)c3c(O)cc(O)cc3o2)C=C1 [Compound 700586] |  |  |  |  |  | 6.20 | initial hits | > 50 |  |  | 3.6 |  | 3.1 |  | 77 | 56.5 |  | 
COc1cc2ccc(=O)oc2c(OC)c1OCC1C(C)=CCC2C(C)(C)C(O)CCC12C (stereo not shown) [Compound 700867] |  |  |  |  |  | 5.59 | initial hits | > 50 |  |  | 27 |  | 19.3 | 126 | 104 | 60.7 |  | 
CC(C)C(=O)OC1C2C(CC(C)C3C=CC(=O)C31C)OC(=O)C2C (stereo not shown) [Compound 701156] |  |  |  |  |  | 6.00 | initial hits | > 50 |  |  |  |  | 24.3 | 113 | 93.7 | 52.7 |  | 
C#CC#CCc1ccccc1C(=O)OC [Compound 701248] |  |  |  |  |  |  |  |  |  |  |  |  | 60.9 |  | 100 | 19.2 | initial hits | > 80
